Data set [1] has as its target T1, LasB (Pseudomonas aeruginosa, UniProt Q02RJ6). The following applies: read-out: IC50 (LasB); literature inhibitor; cited from earlier work.
The target in a further data set is ColH. Conditions: literature inhibitor; cited from earlier work.
The nature of data set [2]: in vitro. Conditions: human, HepG2 cells (hepatocellular carcinoma).
Data set [3] is described as follows: in vitro. Conditions: human, HEK293 cells (embryonal kidney).
Data set [4] in a line: in vitro. The following applies: human, A549 cells (lung carcinoma).
For data set [5], the target named is peptidase domain of ColH (ColH-PD) (Hathewaya histolytica, UniProt Q46085). In words: biochemical. Set-up: species or system Clostridium histolyticum. Conditions: for inhibition at 1 µM: read-out: ColH-PD % inhibition @ 1 μM.
peptidase domain of ColH (ColH-PD), sequence (Q46085 331-721 limits assumed): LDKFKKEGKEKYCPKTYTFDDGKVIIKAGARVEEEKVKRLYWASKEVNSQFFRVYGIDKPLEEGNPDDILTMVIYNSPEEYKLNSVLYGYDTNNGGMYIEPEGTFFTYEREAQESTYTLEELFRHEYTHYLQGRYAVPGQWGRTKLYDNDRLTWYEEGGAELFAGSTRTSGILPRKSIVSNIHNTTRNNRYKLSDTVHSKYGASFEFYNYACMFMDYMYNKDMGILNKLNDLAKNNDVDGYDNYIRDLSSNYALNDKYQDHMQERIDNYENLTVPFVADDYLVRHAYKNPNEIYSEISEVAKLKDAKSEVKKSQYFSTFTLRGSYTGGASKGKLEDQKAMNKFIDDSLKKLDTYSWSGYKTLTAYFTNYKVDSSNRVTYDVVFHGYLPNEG
Data set [6] has as its target T1, LasB.
In data set [7] the target is T1, LasB. In words: biochemical. The following applies: LasB IC50, FRET-based assay.
A further data set has as its target T2, MMP-1 (Homo sapiens, UniProt P03956).
T2 sequence (P03956 100-469): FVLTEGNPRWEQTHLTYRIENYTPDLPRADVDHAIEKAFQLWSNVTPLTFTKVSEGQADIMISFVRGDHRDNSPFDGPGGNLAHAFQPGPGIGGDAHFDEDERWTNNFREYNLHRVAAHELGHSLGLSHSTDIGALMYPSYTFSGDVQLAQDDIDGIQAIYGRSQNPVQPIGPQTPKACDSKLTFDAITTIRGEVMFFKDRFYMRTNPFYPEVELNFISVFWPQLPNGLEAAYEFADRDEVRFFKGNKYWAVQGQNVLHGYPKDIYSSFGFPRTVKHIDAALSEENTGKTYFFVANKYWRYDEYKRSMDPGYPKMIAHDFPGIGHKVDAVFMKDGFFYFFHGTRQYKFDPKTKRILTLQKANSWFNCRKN
Description: MMP-1 off-target inhibition. In kind it is biochemical. The following applies: read-out: MMP-1 % inhibition @ 100 μM; 100 μM compound. An excerpt:
(§1) Previously, we described N-aryl mercaptoacetamides with high selectivity for the bacterial over a broad range of human MMPs.[29],[30] MMPs are calcium-dependent zinc metalloproteases that play a pivotal role in numerous biochemical processes in humans.[39],[40] Based on the depth of their S1′ binding pocket, MMPs can be divided into three classes: deep (e.g., MMP-3 and -14), intermediate (e.g., MMP-2 and -8), and shallow (e.g., MMP-1 and -7). With the aim to explore the interactions of our inhibitors with all three pocket types, which could help us to assess potential effects on other not-tested representatives, we chose a panel of six MMPs, comprising two members of each class. In addition, HDAC-3, HDAC-8, and TACE (ADAM-17)—enzymes involved in gene expression and the processing of TNF-α,[41],[42] respectively—were selected as important additional human off-targets.

The next data set concerns the target T3, MMP-2 (Homo sapiens, UniProt P08253).
T3 sequence (P08253 110-660): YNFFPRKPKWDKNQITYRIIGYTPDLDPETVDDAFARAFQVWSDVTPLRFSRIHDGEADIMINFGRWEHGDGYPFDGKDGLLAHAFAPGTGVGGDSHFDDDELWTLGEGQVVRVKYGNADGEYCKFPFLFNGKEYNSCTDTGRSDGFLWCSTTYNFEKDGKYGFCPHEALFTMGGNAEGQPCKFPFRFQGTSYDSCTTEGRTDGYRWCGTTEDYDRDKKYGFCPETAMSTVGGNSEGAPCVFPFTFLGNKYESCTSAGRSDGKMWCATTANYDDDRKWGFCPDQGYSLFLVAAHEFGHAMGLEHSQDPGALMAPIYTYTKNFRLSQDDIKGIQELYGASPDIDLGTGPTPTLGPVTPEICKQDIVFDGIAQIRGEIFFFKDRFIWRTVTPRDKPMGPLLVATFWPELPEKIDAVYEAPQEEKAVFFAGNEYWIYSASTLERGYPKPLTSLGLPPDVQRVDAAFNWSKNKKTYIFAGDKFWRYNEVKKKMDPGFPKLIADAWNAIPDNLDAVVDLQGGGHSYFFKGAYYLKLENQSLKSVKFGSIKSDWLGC
In words: MMP-2 off-target inhibition. It counts as biochemical.
Description: as §1

The target of another data set is MMP-3 (Homo sapiens, UniProt P08254). Description: MMP-3 off-target inhibition. It counts as biochemical. Conditions: read-out: MMP-3 % inhibition @ 100 μM; 100 μM compound.
MMP-3, sequence (P08254 100-477): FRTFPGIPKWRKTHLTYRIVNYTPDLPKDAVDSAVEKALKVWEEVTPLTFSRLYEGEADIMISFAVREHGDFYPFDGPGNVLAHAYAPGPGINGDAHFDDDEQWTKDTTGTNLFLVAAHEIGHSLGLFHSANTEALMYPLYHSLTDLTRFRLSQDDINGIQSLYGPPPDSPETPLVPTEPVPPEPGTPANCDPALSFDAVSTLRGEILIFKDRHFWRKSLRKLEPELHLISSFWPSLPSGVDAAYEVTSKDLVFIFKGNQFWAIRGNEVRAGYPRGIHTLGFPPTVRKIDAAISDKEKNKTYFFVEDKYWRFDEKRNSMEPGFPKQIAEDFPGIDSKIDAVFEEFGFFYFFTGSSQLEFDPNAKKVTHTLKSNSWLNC
Description: as §1

A further data set concerns the target T4, MMP-7 (Homo sapiens, UniProt P09237).
T4 sequence (P09237 95-267): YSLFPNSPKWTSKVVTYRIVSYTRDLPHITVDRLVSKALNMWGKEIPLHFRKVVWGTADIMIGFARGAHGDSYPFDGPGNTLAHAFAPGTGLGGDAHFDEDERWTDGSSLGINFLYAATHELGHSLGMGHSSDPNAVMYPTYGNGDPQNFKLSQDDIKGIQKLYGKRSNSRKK
Description: MMP-7 off-target inhibition. It counts as biochemical. Conditions: read-out: MMP-7 % inhibition @ 100 μM; 100 μM compound.
Description: as §1

A further data set deals with MMP-8 (Homo sapiens, UniProt P22894). Description: MMP-8 off-target inhibition. It counts as biochemical.
MMP-8, sequence (P22894 101-467): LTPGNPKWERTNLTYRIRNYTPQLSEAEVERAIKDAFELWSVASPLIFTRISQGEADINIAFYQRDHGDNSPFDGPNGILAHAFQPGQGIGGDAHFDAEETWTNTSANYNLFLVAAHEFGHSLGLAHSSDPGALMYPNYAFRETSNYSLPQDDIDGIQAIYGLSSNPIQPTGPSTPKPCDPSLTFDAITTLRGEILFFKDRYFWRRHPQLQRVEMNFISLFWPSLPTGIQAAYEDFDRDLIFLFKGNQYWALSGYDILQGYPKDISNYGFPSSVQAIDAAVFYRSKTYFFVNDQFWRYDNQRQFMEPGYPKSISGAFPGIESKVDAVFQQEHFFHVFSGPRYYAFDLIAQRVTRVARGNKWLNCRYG
Description: as §1

A further data set addresses MMP-14 (Homo sapiens, UniProt P50281). In words: MMP-14 off-target inhibition. It counts as biochemical.
Description: as §1

Another data set has as its target T5, HDAC-3 (Homo sapiens, UniProt O15379).
T5 construct: purchased Sigma-Aldrich (Saint Louis, MO)
Description: HDAC-3 inhibitor screening kit. In kind it is biochemical.
Description: as §1

For another data set, the target named is T6, HDAC-8 (Homo sapiens, UniProt Q9BY41).
T6 construct: purchased Sigma-Aldrich (Saint Louis, MO)
T6 sequence (Q9BY41 1-377): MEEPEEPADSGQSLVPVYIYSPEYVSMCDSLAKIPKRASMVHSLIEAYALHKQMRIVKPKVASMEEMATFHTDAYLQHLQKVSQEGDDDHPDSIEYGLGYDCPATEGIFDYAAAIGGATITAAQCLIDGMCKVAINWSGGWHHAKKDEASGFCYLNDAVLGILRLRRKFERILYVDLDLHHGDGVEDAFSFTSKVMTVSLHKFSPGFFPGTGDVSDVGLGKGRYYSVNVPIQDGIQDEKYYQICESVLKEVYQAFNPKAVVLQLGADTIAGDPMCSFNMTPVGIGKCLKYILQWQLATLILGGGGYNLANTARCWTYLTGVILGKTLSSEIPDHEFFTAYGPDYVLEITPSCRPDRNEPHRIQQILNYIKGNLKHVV
In words: HDAC-8 inhibitor screening kit. In kind it is biochemical.
Description: as §1

In another data set the target is T7, TACE (ADAM-17) (Homo sapiens, UniProt P78536).
T7 construct: purchased Sigma-Aldrich (Saint Louis, MO)
T7 sequence (P78536 215-824): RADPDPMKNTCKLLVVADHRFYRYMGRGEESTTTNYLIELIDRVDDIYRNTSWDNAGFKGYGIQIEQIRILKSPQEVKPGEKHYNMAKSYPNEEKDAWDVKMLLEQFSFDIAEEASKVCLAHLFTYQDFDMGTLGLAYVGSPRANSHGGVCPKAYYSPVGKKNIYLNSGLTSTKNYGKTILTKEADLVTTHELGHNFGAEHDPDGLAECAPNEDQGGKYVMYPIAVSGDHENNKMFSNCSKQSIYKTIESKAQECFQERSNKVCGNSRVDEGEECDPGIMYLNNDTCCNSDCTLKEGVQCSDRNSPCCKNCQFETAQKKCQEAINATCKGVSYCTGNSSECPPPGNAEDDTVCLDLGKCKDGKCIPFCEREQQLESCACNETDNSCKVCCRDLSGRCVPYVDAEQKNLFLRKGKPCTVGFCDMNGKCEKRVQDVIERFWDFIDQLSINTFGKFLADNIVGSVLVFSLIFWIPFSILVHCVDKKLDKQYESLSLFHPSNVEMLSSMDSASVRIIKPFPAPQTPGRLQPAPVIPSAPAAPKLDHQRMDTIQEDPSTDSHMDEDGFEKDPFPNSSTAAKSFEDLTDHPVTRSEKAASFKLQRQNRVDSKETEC
Description: TACE inhibitor screening kit. In kind it is biochemical.
Description: as §1

Data set [8] has as its system P. aeruginosa strain PA14. Description: Bacterial growth inhibition assay (MIC) P. aeruginosa. In kind it is cell-based, Pseudomonas aeruginosa.
Data set [9] addresses collagenase unit of ColG (ColG-CU) (Hathewaya histolytica, UniProt Q9X721). Description: biochemical. Set-up: species or system C. histolyticum. The following applies: read-out: ColG-CU % inhibition @ 100 μM.
For data set [10], the target named is peptidase domain of ColT (ColT-PD) (Clostridium tetani, UniProt Q899Y1). Description: biochemical. Set-up: species or system C. tetani. Conditions: read-out: ColT-PD % inhibition @ 100 μM.
peptidase domain of ColT (ColT-PD), sequence (Q899Y1 340-731 limits assumed): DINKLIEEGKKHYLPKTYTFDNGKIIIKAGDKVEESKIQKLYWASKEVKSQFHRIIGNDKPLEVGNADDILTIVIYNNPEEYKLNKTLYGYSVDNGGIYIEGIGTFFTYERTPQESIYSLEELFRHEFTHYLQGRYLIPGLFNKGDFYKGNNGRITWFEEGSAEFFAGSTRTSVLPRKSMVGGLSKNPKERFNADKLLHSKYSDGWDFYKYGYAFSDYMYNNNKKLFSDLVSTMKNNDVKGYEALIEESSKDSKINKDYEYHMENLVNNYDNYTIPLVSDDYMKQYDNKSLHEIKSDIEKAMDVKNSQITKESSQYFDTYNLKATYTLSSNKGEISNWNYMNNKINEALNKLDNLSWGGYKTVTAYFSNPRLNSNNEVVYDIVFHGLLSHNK
Data set [11] addresses T8, collagenase unit of ColQ1 (ColQ1-CU) (Bacillus cereus, UniProt B9J3S4).
T8 construct: the collagenase unit of ColQ1 (ColQ1-CU) from B. cereus strain Q1
Description: biochemical. Further details: species or system B. cereus strain Q1. Conditions: read-out: ColQ1-CU % inhibition @ 100 μM.

Read-outs that look alike come from different tables or passages of the source.

T1 sequence (Q02RJ6 198-498): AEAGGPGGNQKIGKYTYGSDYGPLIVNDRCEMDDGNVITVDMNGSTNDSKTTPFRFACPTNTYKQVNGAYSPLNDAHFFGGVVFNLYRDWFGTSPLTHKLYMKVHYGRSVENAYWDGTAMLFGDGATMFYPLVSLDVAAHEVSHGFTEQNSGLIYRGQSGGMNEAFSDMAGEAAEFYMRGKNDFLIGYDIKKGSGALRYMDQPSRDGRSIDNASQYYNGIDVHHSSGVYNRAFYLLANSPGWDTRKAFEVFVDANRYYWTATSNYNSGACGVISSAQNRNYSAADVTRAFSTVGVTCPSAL
T8 sequence (B9J3S4 94-765 limits assumed): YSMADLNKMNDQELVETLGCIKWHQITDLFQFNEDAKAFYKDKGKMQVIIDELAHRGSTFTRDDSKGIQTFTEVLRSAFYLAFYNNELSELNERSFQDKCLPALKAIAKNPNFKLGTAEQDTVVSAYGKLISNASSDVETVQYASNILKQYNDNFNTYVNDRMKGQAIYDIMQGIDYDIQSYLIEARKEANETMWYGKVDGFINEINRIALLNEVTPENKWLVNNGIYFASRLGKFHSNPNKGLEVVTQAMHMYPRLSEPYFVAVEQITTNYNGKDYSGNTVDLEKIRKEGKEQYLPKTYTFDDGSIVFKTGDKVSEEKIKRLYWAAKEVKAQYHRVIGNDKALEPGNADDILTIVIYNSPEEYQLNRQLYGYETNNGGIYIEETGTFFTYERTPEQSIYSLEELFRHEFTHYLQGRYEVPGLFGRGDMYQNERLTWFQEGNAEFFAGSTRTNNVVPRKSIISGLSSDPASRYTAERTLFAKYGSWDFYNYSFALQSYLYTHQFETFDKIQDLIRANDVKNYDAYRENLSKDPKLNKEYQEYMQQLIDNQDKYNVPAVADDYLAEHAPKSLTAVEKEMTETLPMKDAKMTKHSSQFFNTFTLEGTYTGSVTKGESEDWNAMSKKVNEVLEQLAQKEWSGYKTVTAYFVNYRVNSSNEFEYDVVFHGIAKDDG
collagenase unit of ColG (ColG-CU), sequence (Q9X721 111-786): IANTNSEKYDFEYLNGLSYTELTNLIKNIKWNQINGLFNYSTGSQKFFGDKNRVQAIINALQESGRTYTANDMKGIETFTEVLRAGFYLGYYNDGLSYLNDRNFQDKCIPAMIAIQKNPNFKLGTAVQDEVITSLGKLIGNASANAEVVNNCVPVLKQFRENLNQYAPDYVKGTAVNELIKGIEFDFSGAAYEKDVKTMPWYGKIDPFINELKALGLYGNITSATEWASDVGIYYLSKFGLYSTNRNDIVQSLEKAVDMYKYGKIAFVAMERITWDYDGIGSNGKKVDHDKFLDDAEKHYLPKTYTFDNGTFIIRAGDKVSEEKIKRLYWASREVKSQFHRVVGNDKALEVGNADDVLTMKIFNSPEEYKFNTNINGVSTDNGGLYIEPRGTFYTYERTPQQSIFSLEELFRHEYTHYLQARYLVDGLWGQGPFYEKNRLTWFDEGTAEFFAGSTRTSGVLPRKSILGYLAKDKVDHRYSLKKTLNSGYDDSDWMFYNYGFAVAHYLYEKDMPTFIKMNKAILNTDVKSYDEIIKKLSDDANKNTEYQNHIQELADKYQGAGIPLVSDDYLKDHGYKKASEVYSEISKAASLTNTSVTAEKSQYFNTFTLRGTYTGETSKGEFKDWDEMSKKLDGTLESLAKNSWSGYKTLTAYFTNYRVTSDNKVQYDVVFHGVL
T5 sequence (O15379 whole entry): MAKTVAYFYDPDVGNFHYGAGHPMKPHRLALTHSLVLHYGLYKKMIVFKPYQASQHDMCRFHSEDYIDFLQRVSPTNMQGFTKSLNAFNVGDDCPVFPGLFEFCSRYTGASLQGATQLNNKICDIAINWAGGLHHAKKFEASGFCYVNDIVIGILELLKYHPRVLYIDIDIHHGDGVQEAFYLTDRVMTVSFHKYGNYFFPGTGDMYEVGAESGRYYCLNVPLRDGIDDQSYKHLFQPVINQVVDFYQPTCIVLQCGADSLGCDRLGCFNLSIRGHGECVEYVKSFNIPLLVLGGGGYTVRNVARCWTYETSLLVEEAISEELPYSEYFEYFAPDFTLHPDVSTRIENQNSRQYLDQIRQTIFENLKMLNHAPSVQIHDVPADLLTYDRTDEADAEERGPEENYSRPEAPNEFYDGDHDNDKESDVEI
T5 sequence (Q9Y618 395-489 partner limits assumed): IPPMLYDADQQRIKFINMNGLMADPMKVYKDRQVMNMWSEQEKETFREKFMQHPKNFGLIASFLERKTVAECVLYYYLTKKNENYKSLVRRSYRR

What is called IC50 is the concentration at which inhibition is half-maximal. With `Cc1c(O)c(=S)ccn1Cc1ccc(-c2ccccc2)cc1` [Compound 1], the concentration for half-maximal inhibition (IC50) on LasB [1] was 2730 ± 30 nM.
In general, Ki refers to a measure of affinity in units of concentration, obtained from inhibition or displacement. Take `CC(C(=O)NO)N(Cc1ccccc1[N+](=O)[O-])S(=O)(=O)c1c(F)c(F)c(F)c(F)c1F` (stereo not drawn) [Compound 3]: the Ki on ColH is 5 nM.
Consider `CC(NC(=O)C(Cc1ccccc1)NC(=O)NS(=O)(=O)c1ccc(F)cc1)C(=O)Nc1nnc(S)s1` (stereo not drawn) [Compound 4], for which the Ki on ColH was 200 nM.
Take `CC(=O)c1ccc(NC(=O)CS)cc1` [Compound 6, reference compound]: the figures for the IC50 in “in vitro [2]”, in the data set “in vitro [3]” and in the data set “in vitro [4]” were over 100 µM, 100 µM and over 100 µM, respectively.
As for `Cc1ccc(N2C(=O)CC(S)C2=O)cc1C` (stereo not drawn) [Compound 9], the inhibition at 1 µM in data set [5] is 7 ± 2%. In addition, the “difference in LasB activity between 9 and 22” value on LasB [6] (ratio of IC50 values, 9 more active) was 5 fold. The molecule further yielded a concentration for half-maximal inhibition (IC50) against LasB [7] of 29.4 ± 0.9 µM.
As a reminder, the MIC is the lowest concentration that inhibits growth of the organism. A higher MIC goes with a need for much substance. On to `O=C1CC(S)C(=O)N1c1ccc(Cl)c(Cl)c1` (stereo not drawn) [Compound 13, 1-(3,4-Dichlorophenyl)-3-mercaptopyrrolidine-2,5-dione], for which the inhibition at 1 µM in [5] was 12 ± 2%. Moreover, the inhibition at 100 µM at MMP-1 was under 10%; on MMP-2 (read-out: MMP-2 % inhibition @ 100 μM, 100 μM compound), 39 ± 32%; at MMP-3 it was under 10%; at MMP-7, under 10%; at MMP-8 (read-out: MMP-8 % inhibition @ 100 μM, 100 μM compound), 84 ± 8%; on MMP-14 (read-out: MMP-14 % inhibition @ 100 μM, 100 μM compound), under 10%. The inhibition at 50 µM at MMP-2 (50 µM compound, read-out: MMP-2 % inh @50µM) is under 10%; on MMP-8 (50 µM compound, read-out: MMP-8 % inh @50µM), under 10%; at MMP-14 (50 µM compound, read-out: MMP-14 % inh @50µM), under 10%. Also, the IC50 was over 100 µM at HDAC-3; over 100 µM against HDAC-8; 5.2 ± 0.6 µM on TACE (ADAM-17); over 100 µM in “in vitro [2]”; over 100 µM in the data set “in vitro [3]”; over 100 µM in “in vitro [4]”. The molecule further showed an IC50 on LasB [7] of 3.4 ± 0.2 µM. Also, the minimal inhibitory concentration (MIC) in data set [8] and in data set [8] (Pseudomonas aeruginosa) was over 100 µM in each case. Besides, at LasB [6], the “improved activity against LasB compared to previous hit 5” value is given as “two-fold”.
For the molecule `COc1ccc(N2C(=O)CC(S)C2=O)cc1` (stereo not drawn) [Compound 20], the IC50 came to 320 ± 50 nM in [5] and 112 ± 8.9 µM against LasB [7]. Further, the inhibition at 1 µM in [5] came to 74%. For the same molecule, the inhibition at 100 µM in data set [5] (read-out: ColH-PD % inhibition @ 100 μM) turned out to be 95 ± 1%; in [9] it was 85 ± 3%; in data set [10] it was 89 ± 4%; in data set [11], 99 ± 1%.
`COc1ccc(N2C(=O)CC(S)C2=O)cc1OC` (stereo not drawn) [Compound 22]: the inhibition at 1 µM in [5] was 3 ± 11%. For the same molecule, the “loss in LasB activity compared to 13” value at LasB [6] (ratio of IC50 values) worked out at 47 fold. Further, the IC50 against LasB [7] turned out to be 160 ± 10.1 µM.
In the case of `O=C1CC(S)C(=O)N1c1cccc(-c2ccccc2)c1` (stereo not drawn) [Compound 26], the inhibition at 1 µM in data set [5] is 7 ± 4%. In addition, the “fold more active on LasB than compound 7” value on LasB [6] was found to be 1.6 fold. Inhibition on LasB [7] was half-maximal at 27.6 ± 4 µM (IC50).

The values are drawn from article PMC7429951 (Journal of Medicinal Chemistry, 2020).
